# Patent US7622469B2, “2,4-diamino-1,3,5-triazine derivatives” (Hamari Chemicals, Ltd., priority 2002, dated 2009)
# Key:
# S. aureus 209PJC [1] = test: Antibacterial activity test (MIC); format: cell-based; settings: Mueller-Hinton Broth, 37° C., 20 to 24 hours
# Method in brief: (§1)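 Broth dilution MIC per the Japanese Society of Chemotherapy standard method in Mueller-Hinton Broth. Strains were grown statically at 37° C for 16 to 20 hours and diluted in sterile saline to 10^5/ml. Compounds were dissolved in methanol and serially diluted twofold in medium, giving 100 μg/ml and 2^n-fold (n=−10 to 1).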
# P. aeruginosa PAO-1 [2] = test: Antibacterial activity test (MIC); format: cell-based; settings: Mueller-Hinton Broth, 37° C., 20 to 24 hours
# Method in brief: as §1
# E. coli NIHJ JC-2 [3] = test: Antibacterial activity test (MIC); format: cell-based; settings: Mueller-Hinton Broth, 37° C., 20 to 24 hours
# Method in brief: as §1
# MRSA 97-115 [4] = test: Antibacterial activity test (MIC); format: cell-based, methicillin-resistant Staphylococcus aureus; settings: Mueller-Hinton Broth, 37° C., 20 to 24 hours
# Method in brief: as §1
# S. aureus 209PJC [5] = test: Bactericidal activity test (MBC, phenol coefficient measuring method); format: cell-based
# Experimental: (§2) As a test bacterium, the same bacteria species as those of the antibacterial activity test were used; as a medium to be used, a SCD medium (manufactured by Eiken Chemical Co., Ltd.) was used for pre-culture medium; and a heart infusion bouillon medium (manufactured by Eiken Chemical Co., Ltd.) was used as a medium for growing a live bacterium in a test solution after bactericidal treatment. One platinum loop of a test bacterium was inoculated into 20 ml of a medium, and static culture was carried out at 37° C. for 18 to 20 hours, and the cells were adjusted with a sterilized physiological saline to 1×10^7/ml, which was used as a test bacterium solution.
# (§3) Then, a solution of each compound in methanol was subjected to ½ stepwise dilution with sterilized water, each 5 ml was dispensed into a test tube, 0.5 ml of the previously prepared test bacterium solution was added thereto, and the mixture was blended well. After 1 minute, 3 minutes and 5 minutes has passed, 5 μl of the test solution was collected and inoculated into 2 ml of a heart infusion bouillon medium, this was cultured at 37° C. for 40 to 48 hours, and the presence or absence of growth of a bacterium was determined. A test was performed three times, a minimum concentration at which growth of a bacterium was not recognized two or more times was adopted as a minimal bactericidal concentration (MBC value).
# (§4) Numerical values in Tables represent MBC expressed in μg/ml unit.
# P. aeruginosa PAO-1 [6] = test: as above; format: cell-based
# Experimental: as §2, §3, §4
# E. coli NIHJ JC-2 [7] = test: as above; format: cell-based
# Experimental: as §2, §3, §4
# MRSA 97-115 [8] = test: as above; format: cell-based, methicillin-resistant Staphylococcus aureus
# Experimental: as §2, §3, §4
smiles,measurement,setting,value
CCCCCCCCNC1=NC(C)(C)N=C(NCc2ccc(C)cc2)N1 [compound 37],minimal inhibitory concentration (MIC),S. aureus 209PJC [1],0.8 µg/mL
same,minimal inhibitory concentration (MIC),P. aeruginosa PAO-1 [2],25 µg/mL
same,minimal inhibitory concentration (MIC),E. coli NIHJ JC-2 [3],12.5 µg/mL
same,minimal inhibitory concentration (MIC),MRSA 97-115 [4],1.6 µg/mL
same,minimal bactericidal concentration (MBC),S. aureus 209PJC [5]; 1 min,12.5 µg/mL
same,minimal bactericidal concentration (MBC),S. aureus 209PJC [5]; 3 min,6.3 µg/mL
same,minimal bactericidal concentration (MBC),S. aureus 209PJC [5]; 5 min,6.3 µg/mL
same,minimal bactericidal concentration (MBC),P. aeruginosa PAO-1 [6]; 1 min,3.1 µg/mL
same,minimal bactericidal concentration (MBC),P. aeruginosa PAO-1 [6]; 3 min,3.1 µg/mL
same,minimal bactericidal concentration (MBC),P. aeruginosa PAO-1 [6]; 5 min,3.1 µg/mL
same,minimal bactericidal concentration (MBC),E. coli NIHJ JC-2 [7]; 1 min,12.5 µg/mL
same,minimal bactericidal concentration (MBC),E. coli NIHJ JC-2 [7]; 3 min,6.3 µg/mL
same,minimal bactericidal concentration (MBC),E. coli NIHJ JC-2 [7]; 5 min,3.1 µg/mL
same,minimal bactericidal concentration (MBC),MRSA 97-115 [8]; 1 min,25 µg/mL
same,minimal bactericidal concentration (MBC),MRSA 97-115 [8]; 3 min,25 µg/mL
same,minimal bactericidal concentration (MBC),MRSA 97-115 [8]; 5 min,12.5 µg/mL
Br.CCCCCCCCCNC1=NC(C)(C)N=C(NCc2ccccc2)N1 [compound 49],minimal inhibitory concentration (MIC),S. aureus 209PJC [1],0.4 µg/mL
same,minimal inhibitory concentration (MIC),P. aeruginosa PAO-1 [2],25 µg/mL
same,minimal inhibitory concentration (MIC),E. coli NIHJ JC-2 [3],12.5 µg/mL
same,minimal inhibitory concentration (MIC),MRSA 97-115 [4],0.8 µg/mL
same,minimal bactericidal concentration (MBC),S. aureus 209PJC [5]; 1 min,12.5 µg/mL
same,minimal bactericidal concentration (MBC),S. aureus 209PJC [5]; 3 min,6.3 µg/mL
same,minimal bactericidal concentration (MBC),S. aureus 209PJC [5]; 5 min,6.3 µg/mL
same,minimal bactericidal concentration (MBC),P. aeruginosa PAO-1 [6]; 1 min,12.5 µg/mL
same,minimal bactericidal concentration (MBC),P. aeruginosa PAO-1 [6]; 3 min,3.1 µg/mL
same,minimal bactericidal concentration (MBC),P. aeruginosa PAO-1 [6]; 5 min,3.1 µg/mL
same,minimal bactericidal concentration (MBC),E. coli NIHJ JC-2 [7]; 1 min,12.5 µg/mL
same,minimal bactericidal concentration (MBC),E. coli NIHJ JC-2 [7]; 3 min,6.3 µg/mL
same,minimal bactericidal concentration (MBC),E. coli NIHJ JC-2 [7]; 5 min,3.1 µg/mL
same,minimal bactericidal concentration (MBC),MRSA 97-115 [8]; 1 min,25 µg/mL
same,minimal bactericidal concentration (MBC),MRSA 97-115 [8]; 3 min,12.5 µg/mL
same,minimal bactericidal concentration (MBC),MRSA 97-115 [8]; 5 min,12.5 µg/mL
CC(=O)O.CCCCCCCCCNC1=NC(C)(C)N=C(NCCc2ccccc2)N1 [compound 56],minimal inhibitory concentration (MIC),S. aureus 209PJC [1],0.4 µg/mL
same,minimal inhibitory concentration (MIC),P. aeruginosa PAO-1 [2],12.5 µg/mL
same,minimal inhibitory concentration (MIC),E. coli NIHJ JC-2 [3],12.5 µg/mL
same,minimal inhibitory concentration (MIC),MRSA 97-115 [4],0.8 µg/mL
same,minimal bactericidal concentration (MBC),S. aureus 209PJC [5]; 1 min,25 µg/mL
same,minimal bactericidal concentration (MBC),S. aureus 209PJC [5]; 3 min,12.5 µg/mL
same,minimal bactericidal concentration (MBC),S. aureus 209PJC [5]; 5 min,6.3 µg/mL
same,minimal bactericidal concentration (MBC),P. aeruginosa PAO-1 [6]; 1 min,12.5 µg/mL
same,minimal bactericidal concentration (MBC),P. aeruginosa PAO-1 [6]; 3 min,3.1 µg/mL
same,minimal bactericidal concentration (MBC),P. aeruginosa PAO-1 [6]; 5 min,1.6 µg/mL
same,minimal bactericidal concentration (MBC),E. coli NIHJ JC-2 [7]; 1 min,12.5 µg/mL
same,minimal bactericidal concentration (MBC),E. coli NIHJ JC-2 [7]; 3 min,3.1 µg/mL
same,minimal bactericidal concentration (MBC),E. coli NIHJ JC-2 [7]; 5 min,3.1 µg/mL
same,minimal bactericidal concentration (MBC),MRSA 97-115 [8]; 1 min,25 µg/mL
same,minimal bactericidal concentration (MBC),MRSA 97-115 [8]; 3 min,12.5 µg/mL
same,minimal bactericidal concentration (MBC),MRSA 97-115 [8]; 5 min,6.3 µg/mL
